We go through eleven molecules from patent publication US11746100B2 (GLOBAL BLOOD THERAPEUTICS, INC., priority 2020, dated 2023).

The structures appear in SMILES notation.

In this experiment the target is T1, human ferroportin (Homo sapiens, UniProt Q9NP59).
T1 construct: luciferase reporter (read with the Nano-Glo Luciferase Assay System); expressed in transfected cells; host or cells: CHO cells, stably transfected, expression induced with doxycycline
T1 sequence (Q9NP59 1-571): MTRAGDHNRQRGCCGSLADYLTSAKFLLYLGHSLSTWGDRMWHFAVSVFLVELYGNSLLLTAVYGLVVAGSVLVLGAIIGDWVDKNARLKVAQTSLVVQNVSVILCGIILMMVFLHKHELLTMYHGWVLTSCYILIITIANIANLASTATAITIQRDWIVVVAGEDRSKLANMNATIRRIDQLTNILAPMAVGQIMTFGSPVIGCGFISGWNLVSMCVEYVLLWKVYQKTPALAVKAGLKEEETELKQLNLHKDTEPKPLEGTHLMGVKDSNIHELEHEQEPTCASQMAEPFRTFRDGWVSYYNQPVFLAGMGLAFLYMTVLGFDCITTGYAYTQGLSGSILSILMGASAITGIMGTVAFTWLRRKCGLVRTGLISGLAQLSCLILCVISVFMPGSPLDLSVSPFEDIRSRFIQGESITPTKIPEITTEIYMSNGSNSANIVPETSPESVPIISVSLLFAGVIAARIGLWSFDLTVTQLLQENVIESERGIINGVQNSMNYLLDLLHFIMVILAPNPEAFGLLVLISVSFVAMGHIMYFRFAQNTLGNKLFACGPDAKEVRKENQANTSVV
The experiment in a line: Biological in-vitro ferroportin internalization assay (luciferase reporter). To be noted: average pEC50; stably-transfected CHO cell line expressing human ferroportin tagged to a luciferase reporter; 6 h incubation with test compound. Type of experiment: cell-based. The method in brief:
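Read-out is Nano-Glo luciferase signal after 6 h compound exposure, with average pEC50 derived. Cells are a stable CHO line carrying luciferase-tagged human ferroportin, pre-loaded 24 h with ferric ammonium citrate and doxycycline-induced for 24 h.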
(A reporter such as luciferase makes a cellular process visible.)
For orientation: pEC50 means the negative decadic logarithm of the EC50, by convention in mol/L. A low value points to a large EC50. In turn, `CN(C)CCSc1ccnc(-c2nc3c(c(N(C)CC(=O)NC(C)(C)C)n2)CCC3)c1` [Compound 499, N-tert-butyl-2-{[2-(4-{[2-(dimethylamino)ethyl]sulfanyl}pyridin-2-yl)-5H,6H,7H-cyclopenta[d]pyrimidin-4-yl](methyl)amino}acetamide] yielded a pEC50 of 8.2.

For `CN(C)CCOc1ccnc(-c2nc3c(c(N(C)CC(=O)NC4CC4)n2)CCC3)c1` [Compound 500, N-cyclopropyl-2-[(2-{4-[2-(dimethylamino)ethoxy]pyridin-2-yl}-5H,6H,7H-cyclopenta[d]pyrimidin-4-yl)(methyl)amino]acetamide], the pEC50 is recorded as 7.3.

Take `CN(CC(=O)NC(C)(C)C)c1nc(-c2cc(OCC(C)(C)O)ccn2)nc2c1CCC2=O` [Compound 501, N-tert-butyl-2-({2-[4-(2-hydroxy-2-methylpropoxy)pyridin-2-yl]-7-oxo-5H,6H,7H-cyclopenta[d]pyrimidin-4-yl}(methyl)amino)acetamide]: the pEC50 is 6.4.

For `C[C@H]1C[C@@H](Oc2ccnc(-c3nc4c(c(N(C)CC(=O)NC(C)(C)C)n3)CCC4)c2)CN1C` [Compound 502, N-tert-butyl-2-{[2-(4-{[(3R,5S)-1,5-dimethylpyrrolidin-3-yl]oxy}pyridin-2-yl)-5H,6H,7H-cyclopenta[d]pyrimidin-4-yl](methyl)amino}acetamide], the pEC50 was 8.2.

In the case of `C[C@H](C(=O)NC(C)(C)C)N(C)c1nc(-c2cc(O[C@@H]3CCN(C)C3)ccn2)nc2c1CCC2` [Compound 503, (2R)—N-tert-butyl-2-{methyl[2-(4-{[(3R)-1-methylpyrrolidin-3-yl]oxy}pyridin-2-yl)-5H,6H,7H-cyclopenta[d]pyrimidin-4-yl]amino}propanamide], the pEC50 came out at 8.5.

`CC(C)NC(=O)[C@@H](C)N(C)c1nc(-c2cc(O[C@@H]3CCN(C)C3)ccn2)nc2c1CCC2` [Compound 504, (2R)-2-{methyl[2-(4-{[(3R)-1-methylpyrrolidin-3-yl]oxy}pyridin-2-yl)-5H,6H,7H-cyclopenta[d]pyrimidin-4-yl]amino}-N-(propan-2-yl)propanamide] came in with a pEC50 of 7.9.

Regarding `CC(C)NC(=O)CN(C)c1nc(-c2cc(OCCN3CCSCC3)ccn2)nc2c1CCC2` [Compound 505, 2-[methyl(2-{4-[2-(thiomorpholin-4-yl)ethoxy]pyridin-2-yl}-5H,6H,7H-cyclopenta[d]pyrimidin-4-yl)amino]-N-(propan-2-yl)acetamide], the pEC50 is 8.8.

Turning to `CSCCOc1ccnc(-c2nc3c(c(N(C)CC(=O)NC(C)(C)C)n2)CCC3)c1` [Compound 506, N-tert-butyl-2-[methyl(2-{4-[2-(methylsulfanyl)ethoxy]pyridin-2-yl}-5H,6H,7H-cyclopenta[d]pyrimidin-4-yl)amino]acetamide], the pEC50 turned out to be 8.0.

`CN(CC(=O)NC(C)(C)C)c1nc(-c2cc(OCCS(C)(=O)=O)ccn2)nc2c1CCC2` [Compound 507, N-tert-butyl-2-({2-[4-(2-methanesulfonylethoxy)pyridin-2-yl]-5H,6H,7H-cyclopenta[d]pyrimidin-4-yl}(methyl)amino)acetamide] gave a pEC50 of 7.9.

Molecule `[2H]C([2H])([2H])N(CCOc1ccnc(-c2nc3c(c(N(C)CC(=O)NC(C)(C)C)n2)CCC3)c1)C([2H])([2H])[2H]` [Compound 508, N-tert-butyl-2-{[2-(4-{2-[di(2H3)methylamino]ethoxy}pyridin-2-yl)-5H,6H,7H-cyclopenta[d]pyrimidin-4-yl](methyl)amino}acetamide] registered a pEC50 of 7.6.

Regarding `[2H]C([2H])([2H])N(CC(=O)NC(C)(C)C)c1nc(-c2cc(OCC(C)(C)O)ccn2)nc2c1CCC2` [Compound 509, N-tert-butyl-2-({2-[4-(2-hydroxy-2-methylpropoxy)pyridin-2-yl]-5H,6H,7H-cyclopenta[d]pyrimidin-4-yl}((2H3)methyl)amino)acetamide], the pEC50 turned out to be 8.2.
